Test results as given in patent US11352322B2, “Cyclopropyl-amide compounds as dual LSD1/HDAC inhibitors” (Jubilant Epicore LLC, priority 2016, dated 2022).
pEC50, pIC50: −log10 of the molar value. Where a name gives a salt, the structure may show the parent alone. Read-outs that look alike come from different tables or passages of the source.

Legend:
[1] = In vivo PK studies in mice; parameters: species or system Male Balb/C mice
Method: In Vivo PK Studies in Mice
All the animal experiments were approved by Institutional Animal Ethical Committee (IAEC/JDC/2015/72). Male Balb/C mice (n=24) were procured from Vivo Biotech, Hyderabad, India. The animals were housed in Jubilant Biosys animal house facility in a temperature (22±2° C.) and humidity (30-70%) controlled room (15 air changes/hour) with a 12:12 h light:dark cycles, had free access to rodent feed (Altromin Spezialfutter GmbH & Co. KG., Im Seelenkamp 20, D-32791, Lage, Germany) and water for one week before using for experimental purpose. Following ˜4 h fast (during the fasting period animals had free access to water) animals were divided into two groups (n=12/group). […] Post-dosing serial blood samples (100 μL, sparse sampling was done and at each time point three mice were used for blood sampling) were collected using Micropipettes (Microcaps®; catalogue number: 1-000-0500) through tail vein into polypropylene tubes containing K2.EDTA solution as an anti-coagulant at 0.25, 0.5, 1, 2, 4, 8, 10 and 24 (for oral study) and 0.12, 0.25, 0.5, 1, 2, 4, 8 and 24 (for intravenous study). Plasma was harvested by centrifuging the blood using Biofuge (Hereaus, Germany) at 1760 g for 5 min and stored frozen at −80±10° C. until analysis. Animals were allowed to access feed 2 h post-dosing.
Plasma concentration-time data of the compound was analyzed by non-compartmental method using Phoenix WinNonlin Version 6.3 (Pharsight Corporation, Mountain View, Calif.).

[2] = Metabolic stability in liver microsomes, HLM; settings: 1 μM, NADPH
Method: (§1) The microsomal suspension was prepared by adding liver microsomes to 100 mM potassium phosphate buffer (pH7.4) to give a final protein concentration of 0.5 mg/mL. The stock solution of NCE (10 mM in DMSO) was added to the microsomes to provide a final concentration of 1 μM. […] Samples were vortexed and centrifuged at 5,000 rpm for 10 min to remove proteins. Supernatant were analyzed on LC-MS/MS.

[3] = target: HDAC6 human recombinant enzyme (Homo sapiens (Human), UniProt Q9UBN7); experiment: Histone Deacetylase Assay (BPS Biosciences), HDAC6; format: biochemical
Text: Histone Deacetylase Assay (BPS Biosciences)
Histone deacetylase assay was done as per manufacturer's instructions.

[4] = Metabolic stability in liver microsomes, MLM; settings: 1 μM, NADPH
Method: as §1

[5] = target: LSD1 (Homo sapiens (Human), UniProt O60341); experiment: TR-FRET Assay for LSD1; settings: read-out: LSD1 IC50
Method: TR-FRET Assay for LSD1 (Perkin Elmer)
Tranylcypromine (TCP), LSD1 inhibitor was procured from Selleckchem. […] Stop Solution containing 300 μM tranylcypromine in 1× LANCE Detection Buffer was added to the wells and incubated for 5 min at RT. Then, Detection mix containing 2 nM Eu-Ab and 50 nM ULight-Streptavidin in 1× LANCE Detection Buffer was prepared and added to the reaction mix. This mixture was incubated for 1 hour at room temperature.

[6] = system: MM1S; experiment: Anticancer activity: Alamar Blue assay, MM1S; format: cell-based; settings: Homo sapiens, MM1.S, read-out: MM1S EC50
Method: Cells were seeded at 5000 cells/per well in 96-well tissue culture plate and incubated at 37° C./5% CO2. After 16-24 hours, fresh media was added to the wells. Compounds were then (1% DMSO conc.) added to the cells at 10 concentrations ranging from 10-0.0005 uM prepared in 3-fold serial dilutions. Cells were incubated for 68-72 h at 37° C./5% CO2. Alamar Blue™ reagent was added and incubated for 1-3 hours at 37° C./5% CO2. Plates were read on fluorescence reader at 540 nm excitation, 590 nm emission wave lengths.

[7] = male, Balb/C, mouse, plasma, IV 2 mg/kg

Chain of HDAC6 human recombinant enzyme (Q9UBN7 whole entry): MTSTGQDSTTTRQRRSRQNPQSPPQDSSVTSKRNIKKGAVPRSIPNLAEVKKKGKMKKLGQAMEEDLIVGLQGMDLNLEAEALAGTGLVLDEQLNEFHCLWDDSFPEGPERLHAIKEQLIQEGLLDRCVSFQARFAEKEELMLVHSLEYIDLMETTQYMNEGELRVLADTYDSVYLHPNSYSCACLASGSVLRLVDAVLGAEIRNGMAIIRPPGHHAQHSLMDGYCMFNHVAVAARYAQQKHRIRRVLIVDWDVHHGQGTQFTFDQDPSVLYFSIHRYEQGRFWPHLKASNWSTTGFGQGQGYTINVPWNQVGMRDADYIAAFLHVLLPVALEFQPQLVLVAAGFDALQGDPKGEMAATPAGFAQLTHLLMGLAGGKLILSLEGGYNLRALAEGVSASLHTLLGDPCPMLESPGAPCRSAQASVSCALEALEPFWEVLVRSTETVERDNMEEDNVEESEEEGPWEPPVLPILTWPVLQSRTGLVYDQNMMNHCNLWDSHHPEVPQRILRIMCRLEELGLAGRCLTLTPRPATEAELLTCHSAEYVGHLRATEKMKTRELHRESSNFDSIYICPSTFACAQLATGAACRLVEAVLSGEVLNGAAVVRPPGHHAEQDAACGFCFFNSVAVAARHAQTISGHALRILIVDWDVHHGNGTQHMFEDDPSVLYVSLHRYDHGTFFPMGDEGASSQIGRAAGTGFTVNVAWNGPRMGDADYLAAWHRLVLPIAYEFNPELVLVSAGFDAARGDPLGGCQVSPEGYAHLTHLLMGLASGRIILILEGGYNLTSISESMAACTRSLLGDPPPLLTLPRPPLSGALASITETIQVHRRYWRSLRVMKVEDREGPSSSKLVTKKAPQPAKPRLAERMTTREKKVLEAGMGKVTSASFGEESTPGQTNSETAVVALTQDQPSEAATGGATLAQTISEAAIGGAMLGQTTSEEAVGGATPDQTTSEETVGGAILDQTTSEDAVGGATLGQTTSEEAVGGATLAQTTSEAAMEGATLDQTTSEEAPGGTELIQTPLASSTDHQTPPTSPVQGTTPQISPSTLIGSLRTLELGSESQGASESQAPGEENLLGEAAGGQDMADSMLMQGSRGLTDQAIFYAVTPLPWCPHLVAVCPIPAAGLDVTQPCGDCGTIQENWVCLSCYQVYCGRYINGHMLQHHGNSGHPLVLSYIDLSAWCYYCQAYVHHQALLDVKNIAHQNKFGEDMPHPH

SMILES | Metabolic stability HLM % remaining in 30 min [2] | pIC50 [3] | Metabolic stability MLM % remaining in 30 min [4] | pIC50 [5] | pEC50 [6] | other results
O=C(NO)c1ccc(CCCN2CCC(CNC3CC3c3ccc(-c4ccc(F)cc4)cc3)CC2)cc1 (stereo not drawn) [Example 57, 4-(3-(4-(((2-(4′-fluoro-[1,1′-biphenyl]-4-yl)cyclopropyl)amino)methyl)piperidin-1-yl)propyl)-N-hydroxybenzamide TFA Salt] | 92% | 7.23 | 75% | 7.68 |  | AUC IV ([1]; IV 2 mg/kg): 169 ng/mL/h; AUC PO ([1]; PO 10 mg/kg): 677 ng/mL/h; C0 [1, 7]: 260 ng/mL; Vd [1, 7]: 28 L/kg; Cmax ([1]; male, Balb/C, mouse, plasma, IV 2 mg/kg, read-out: CMax IV): 254 ng/mL; clearance ([1]; male, Balb/C, mouse, plasma, IV 2 mg/kg, read-out: Cl IV): 190 mL/min/kg; half-life ([1]; male, Balb/C, mouse, plasma, IV 2 mg/kg, read-out: t1/2 IV (converted)): 1.71 h; Cmax ([1]; male, Balb/C, mouse, plasma, PO 10 mg/kg, read-out: CMax PO): 217 ng/mL; half-life ([1]; male, Balb/C, mouse, plasma, PO 10 mg/kg, read-out: t1/2 PO (converted)): 1.83 h; bioavailability ([1]; male, Balb/C, mouse, plasma, dose IV/PO 2/10 mg/kg): 80%
O=C(NO)c1ccc(/C=C/C(=O)N2CCC(CN[C@H]3C[C@@H]3c3ccc(F)cc3)CC2)cc1 [Example 115, 4-((E)-3-(4-((((1S,2R)-2-(4-fluorophenyl)cyclopropyl)amino)methyl)piperidin-1-yl)-3-oxoprop-1-en-1-yl)-N-hydroxybenzamide TFA Salt] | 75% | 7.28 | 45% | 7.19 |  | pEC50 ([6]; MM1S cells): 8.00
O=C(NO)c1ccc(/C=C/C(=O)N2CCC(CNC3CC3c3ccc(-c4cncnc4)cc3)CC2)cc1 (stereo not drawn) [Example 117, (E)-N-hydroxy-4-(3-oxo-3-(4-(((2-(4-(pyrimidin-5-yl)phenyl)cyclopropyl)amino)methyl)piperidin-1-yl)prop-1-en-1-yl)benzamide TFA Salt] | 80% | 7.13 | 82% | 7.34 | 6.34 | 
O=C(NO)c1ccc(/C=C/C(=O)N2CC(CNC3CC3c3ccc(F)cc3)C2)cc1 (stereo not drawn) [Example 118, (E)-4-(3-(3-(((2-(4-fluorophenyl)cyclopropyl)amino)methyl)azetidin-1-yl)-3-oxoprop-1-en-1-yl)-N-hydroxybenzamide TFA Salt] | 77% | 7.24 | 76% | 7.43 | 7.68 | 
Cn1cc(-c2ccc(C3CC3NCC3CN(C(=O)/C=C/c4ccc(C(=O)NO)cc4)C3)cc2)cn1 (stereo not drawn) [Example 119, (E)-N-hydroxy-4-(3-(3-(((2-(4-(1-methyl-1H-pyrazol-4-yl)phenyl)cyclopropyl)amino)methyl)azetidin-1-yl)-3-oxoprop-1-en-1-yl)benzamide TFA Salt] | 72% | 7.31 | 49% | 7.72 | 6.11 | 
Nc1ccccc1NC(=O)c1ccc(CCCN2CC3(CC(NC4CC4c4ccccc4)C3)C2)cc1 (stereo not drawn) [Example 127, N-(2-aminophenyl)-4-(3-(6-((2-phenylcyclopropyl)amino)-2-azaspiro[3.3]heptan-2-yl)propyl)benzamide TFA Salt] | 17% | < 5.00 | 19% | 6.12 |  | pEC50 ([6]; MM1S cells): 6.90
Nc1ccc(F)cc1NC(=O)c1ccc(CCCN2CCC(CNC3CC3c3ccc(F)cc3)CC2)cc1 (stereo not drawn) [Example 132, N-(2-amino-5-fluorophenyl)-4-(3-(4-(((2-(4-fluorophenyl)cyclopropyl)amino)methyl)piperidin-1-yl)propyl)benzamide TFA Salt] | 81% | < 5.00 | 80% | 8.30 | 7.68 | 
Nc1ccccc1NC(=O)c1ccc(CCC(=O)N2CCC(CNC3CC3c3ccccc3)CC2)cc1 (stereo not drawn) [Example 134, N-(2-aminophenyl)-4-(3-oxo-3-(4-(((2-phenylcyclopropyl)amino)methyl)piperidin-1-yl)propyl)benzamide TFA Salt] | 10/10% | < 5.00 | 10/10% | 7.38 | 6.76 | 
Nc1ccccc1NC(=O)c1ccc(CCCn2cnc(CNC3CC3c3ccccc3)c2)cc1 (stereo not drawn) [Example 136, N-(2-aminophenyl)-4-(3-(4-(((2-phenylcyclopropyl)amino)methyl)-1H-imidazol-1-yl)propyl)benzamide TFA Salt] | 4% | < 5.00 | 3% | 6.24 | 6.76 | 
Nc1ccccc1NC(=O)c1ccc(CN2CCC(CN[C@@H]3C[C@H]3c3ccccc3)CC2)cc1 [Example 140, N-(2-aminophenyl)-4-((4-((((1R,2S)-2-phenylcyclopropyl)amino)methyl)piperidin-1-yl)methyl)benzamide TFA Salt] | 85% | < 5.00 | 83% | 8.70 | 8.70 | 
Cn1cc(-c2ccc(C3CC3NCC3CCN(Cc4ccc(C(=O)Nc5ccccc5N)cc4)CC3)cc2)ccc1=O (stereo not drawn) [Example 141, N-(2-aminophenyl)-4-((4-(((2-(4-(1-methyl-6-oxo-1,6-dihydropyridin-3-yl)phenyl)cyclopropyl)amino)methyl)piperidin-1-yl)methyl)benzamide TFA Salt] | 88% | < 5.00 | 75% | 7.52 | 6.71 | 
Cc1noc(C)c1-c1ccc(C2CC2NCC2CCN(Cc3ccc(C(=O)Nc4ccccc4N)cc3)CC2)cc1 (stereo not drawn) [Example 143, N-(2-aminophenyl)-4-((4-(((2-(4-(3,5-dimethylisoxazol-4-yl)phenyl)cyclopropyl)amino)methyl)piperidin-1-yl)methyl)benzamide TFA Salt] | 37% | < 5.00 | 50% | 7.43 | 6.99 | 
Nc1ccccc1NC(=O)c1ccc(CN2CCC(CNC3CC3c3ccc(-c4cncnc4)cc3)CC2)cc1 (stereo not drawn) [Example 144, N-(2-aminophenyl)-4-((4-(((2-(4-(pyrimidin-5-yl)phenyl)cyclopropyl)amino)methyl)piperidin-1-yl)methyl)benzamide TFA Salt] | 68% | < 5.00 | 52% | 7.39 | 6.82 | 
Nc1ccccc1NC(=O)c1ccc(CC(=O)N2CCC(CNC3CC3c3ccc(F)cc3)CC2)cc1 (stereo not drawn) [Example 147, N-(2-aminophenyl)-4-(2-(4-(((2-(4-fluorophenyl)cyclopropyl)amino)methyl)piperidin-1-yl)-2-oxoethyl)benzamide TFA Salt] | 48% | < 5.00 | < 5% | 7.49 | 7.54 | 
Nc1ccccc1NC(=O)c1ccc(OCCNC2CC2c2ccc(F)cc2)cc1 (stereo not drawn) [Example 148, N-(2-aminophenyl)-4-(2-((2-(4-fluorophenyl)cyclopropyl)amino)ethoxy) benzamide TFA Salt] | 46% | < 5.00 | 34% | 7.62 |  | pEC50 ([6]; MM1S cells): 7.40
Nc1ccccc1NC(=O)c1cnc(NCCN2CCC(CNC3CC3c3ccc(F)cc3)CC2)nc1 (stereo not drawn) [Example 150] | >95/>95% | < 5.00 | >95/>95% | 7.80 |  | pEC50 ([6]; MM1S cells): 6.39
Nc1ccccc1NC(=O)c1ccc(/C=C/C(=O)N2CCC(CNC3CC3c3ccc(F)cc3)CC2)cc1 (stereo not drawn) [Example 156] | 58% | < 5.00 | 49% | 6.73 |  | pEC50 ([6]; MM1S cells): 7.01
Nc1ccccc1NC(=O)c1ccc(/C=C/C(=O)N2CC(CNC3CC3c3ccc(F)cc3)C2)cc1 (stereo not drawn) [Example 157, (E)-N-(2-aminophenyl)-4-(3-(3-(((2-(4-fluorophenyl)cyclopropyl)amino)methyl)azetidin-1-yl)-3-oxoprop-1-en-1-yl)benzamide TFA Salt] | 53% | < 5.00 | 63% | 7.24 | 6.78 | 
